Data on one molecule can be found in BindingDB's records for doi:10.1016/j.bmcl.2003.12.023 (Pfizer, 2004).

In general, IC50 refers to the concentration needed to halve the response being measured. Read a low IC50 as higher potency.

The experiment has as its target Mitogen-activated protein kinase 14 (Homo sapiens, UniProt Q16539). Description: Enzyme Inhibition Assay.

Chain of Mitogen-activated protein kinase 14 (Q16539 whole entry): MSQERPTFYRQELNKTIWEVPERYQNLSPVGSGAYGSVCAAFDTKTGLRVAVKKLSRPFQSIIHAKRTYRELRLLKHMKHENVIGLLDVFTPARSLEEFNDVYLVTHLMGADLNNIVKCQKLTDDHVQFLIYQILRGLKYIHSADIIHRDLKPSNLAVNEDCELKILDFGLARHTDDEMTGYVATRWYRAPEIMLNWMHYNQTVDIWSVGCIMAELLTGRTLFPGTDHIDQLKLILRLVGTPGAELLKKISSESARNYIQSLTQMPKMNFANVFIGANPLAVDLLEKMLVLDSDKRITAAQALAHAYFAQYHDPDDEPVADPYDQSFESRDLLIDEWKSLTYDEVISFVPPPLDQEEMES

As for `CCn1c(=O)n(CC)c2cc(-c3[nH]c(C4CCNCC4)nc3-c3cccc(C)c3)ccc21` [1,3-diethyl-5-[4-(3-methylphenyl)-2-(piperidin-4-yl)-1H-imidazol-5-yl]-2,3-dihydro-1H-1,3-benzodiazol-2-one], the IC50 is 70 nM.
